Assays:
Homo sapiens [1] = organism: Homo sapiens; experiment: Anti-proliferative activity on NHDF induced by fetal bovine serum (FBS) at 0 uM concentration by measuring [3H]thymidine incorporation; assay type: functional
[2] = Anti-proliferative activity of KB cells from head and neck cancer cell line induced by fetal bovine serum (FBS) at 0.3 (uM) concentrations for [3H]- thymidine incorporation; assay type: functional, Homo sapiens, Cancer cell lines
[3] = Anti-proliferative activity of KB cells from head and neck cancer cell line induced by fetal bovine serum (FBS) at 0.3 (uM) concentrations for % inhibition; assay type: functional, Homo sapiens, Cancer cell lines
HUVEC [4] = experiment: Anti-proliferative effect on human umbilical vein endothelial cells (HUVEC) induced by basic fibroblast growth factor (bFGF) at 1 (uM) concentration; assay type: functional
HUVEC [5] = experiment: Anti-proliferative effect on human umbilical vein endothelial cells (HUVEC) induced by basic fibroblast growth factor (bFGF) at 0.3 (uM) concentration; assay type: functional
HUVEC [6] = experiment: Anti-proliferative effect on human umbilical vein endothelial cells (HUVEC) induced by fetal bovine serum (FBS); assay type: functional, cell-based
Homo sapiens [7] = organism: Homo sapiens; experiment: Anti-proliferative activity of normal human dermal fibroblasts (NHDF) induced by fetal bovine serum (FBS) at 0.3 uM concentration; assay type: functional
HUVEC [8] = experiment: Anti-proliferative effect on human umbilical vein endothelial cells (HUVEC) induced by endothelial cell growth supplement (ECGS) at 0.3 (uM) concentration; assay type: functional
HUVEC [9] = experiment: Anti-proliferative effect on human umbilical vein endothelial cells (HUVEC) induced by vascular endothelial growth factor (VEGF); assay type: functional, cell-based
HUVEC [10] = experiment: Anti-proliferative effect on HUVEC induced by fetal bovine serum (FBS) at 1 uM concentration by measuring [3H]-thymidine incorporation; assay type: functional, Homo sapiens
Homo sapiens [11] = organism: Homo sapiens; experiment: Anti-proliferative activity on normal human dermal fibroblasts (NHDF) induced by fetal bovine serum (FBS) at 1 uM concentration; assay type: functional
HUVEC [12] = experiment: Anti-proliferative effect on HUVEC induced by basic fibroblast growth factor (bFGF)at 0.1 uM concentration by measuring [3H]thymidine incorporation; assay type: functional, Homo sapiens
Homo sapiens [13] = organism: Homo sapiens; experiment: Anti-proliferative activity on normal human dermal fibroblasts (NHDF) induced by fetal bovine serum (FBS) at 0.1 uM concentration; assay type: functional
HUVEC [14] = experiment: Anti-proliferative effect on HUVEC induced by fetal bovine serum (FBS) at 0.3 uM concentration by measuring [3H]thymidine incorporation; assay type: functional, Homo sapiens
HUVEC [15] = experiment: Anti-proliferative effect on HUVEC induced by vascular endothelial growth factor (VEGF)at 0.1 uM concentration by measuring [3H]thymidine incorporation; assay type: functional, Homo sapiens
[16] = Anti-proliferative activity of KB cells from head and neck cancer cell line induced by fetal bovine serum (FBS) at 0 uM concentrations for [3H]thymidine incorporation; assay type: functional, Homo sapiens, Cancer cell lines
HUVEC [17] = experiment: Anti-proliferative effect on HUVEC induced by vascular endothelial growth factor (VEGF)at 1 uM concentration by measuring [3H]thymidine incorporation; assay type: functional, Homo sapiens
[18] = Anti-proliferative activity of KB cells from head and neck cancer cell line induced by fetal bovine serum (FBS) at 1 (uM) concentration for % inhibition; assay type: functional, Homo sapiens, Cancer cell lines
HUVEC [19] = experiment: Anti-proliferative effect on HUVEC induced by basic fibroblast growth factor (bFGF)at 0.3 uM concentration by measuring [3H]thymidine incorporation; assay type: functional, Homo sapiens
HUVEC [20] = experiment: Anti-proliferative effect on human umbilical vein endothelial cells (HUVEC) induced by basic fibroblast growth factor (bFGF) at 0.1 (uM) concentration; assay type: functional
HUVEC [21] = experiment: Anti-proliferative effect on human umbilical vein endothelial cells (HUVEC) induced by fetal bovine serum (FBS) at 0.1 (uM) concentration; assay type: functional
[22] = Anti-proliferative activity of KB cells from head and neck cancer cell line induced by fetal bovine serum (FBS) at 0.1 (uM) concentrations for % inhibition; assay type: functional, Homo sapiens, Cancer cell lines
HUVEC [23] = experiment: Anti-proliferative effect on human umbilical vein endothelial cells (HUVEC) induced by ECGS at 0.1 uM concentration by measuring [3H]thymidine incorporation; assay type: functional
[24] = Anti-proliferative activity of KB cells from head and neck cancer cell line induced by fetal bovine serum (FBS) at 1 (uM) concentrations for [3H]- thymidine incorporation; assay type: functional, Homo sapiens, Cancer cell lines
HUVEC [25] = experiment: Anti-proliferative effect on human umbilical vein endothelial cells (HUVEC) induced by vascular endothelial growth factor (VEGF) at 0.1 (uM) concentration; assay type: functional
HUVEC [26] = experiment: Anti-proliferative effect on HUVEC induced by fetal bovine serum (FBS) at 0 uM concentration by measuring [3H]thymidine incorporation; assay type: functional, Homo sapiens
HUVEC [27] = experiment: Anti-proliferative effect on human umbilical vein endothelial cells (HUVEC) induced by vascular endothelial growth factor (VEGF) at 0.3 (uM) concentration; assay type: functional
HUVEC [28] = experiment: Anti-proliferative effect on human umbilical vein endothelial cells (HUVEC) induced by ECGS at 0.3 uM concentration by measuring [3H]thymidine incorporation; assay type: functional
HUVEC [29] = experiment: Anti-proliferative effect on HUVEC induced by vascular endothelial growth factor (VEGF)at 0 uM concentration by measuring [3H]thymidine incorporation; assay type: functional, Homo sapiens
HUVEC [30] = experiment: Anti-proliferative effect on human umbilical vein endothelial cells (HUVEC) induced by vascular endothelial growth factor (VEGF) at 1 (uM) concentration; assay type: functional
[31] = Anti-proliferative activity of KB cells from head and neck cancer cell line induced by fetal bovine serum (FBS) at 0.1 (uM) concentrations for [3H]- thymidine incorporation; assay type: functional, Homo sapiens, Cancer cell lines
HUVEC [32] = experiment: Anti-proliferative effect on human umbilical vein endothelial cells (HUVEC) induced by fetal bovine serum (FBS) at 1 uM concentration; assay type: functional
HUVEC [33] = experiment: Anti-proliferative effect on human umbilical vein endothelial cells (HUVEC) induced by endothelial cell growth supplement (ECGS); assay type: functional, cell-based
HUVEC [34] = experiment: Anti-proliferative effect on human umbilical vein endothelial cells (HUVEC) induced by ECGS at 0 uM concentration by measuring [3H]thymidine incorporation; assay type: functional
Homo sapiens [35] = organism: Homo sapiens; experiment: Anti-proliferative activity on NHDF induced by fetal bovine serum (FBS) at 0.3 uM concentration by measuring [3H]thymidine incorporation; assay type: functional
Homo sapiens [36] = organism: Homo sapiens; experiment: Anti-proliferative activity on NHDF induced by fetal bovine serum (FBS) at 0.1 uM concentration by measuring [3H]thymidine incorporation; assay type: functional
Mus musculus [37] = experiment: Antirheumatic effect was determined in mice after oral administration of a dose of 30 mg/kg/day at day 14; assay type: functional; details: 336 h
Homo sapiens [38] = organism: Homo sapiens; experiment: Anti-proliferative activity on NHDF induced by fetal bovine serum (FBS) at 1 uM concentration by measuring [3H]thymidine incorporation; assay type: functional
HUVEC [39] = experiment: Anti-proliferative effect on human umbilical vein endothelial cells (HUVEC) induced by basic fibroblast growth factor (bFGF); assay type: functional, cell-based
HUVEC [40] = experiment: Anti-proliferative effect on human umbilical vein endothelial cells (HUVEC) induced by ECGS at 1 uM concentration by measuring [3H]thymidine incorporation; assay type: functional
HUVEC [41] = experiment: Anti-proliferative effect on HUVEC induced by vascular endothelial growth factor (VEGF)at 0.3 uM concentration by measuring [3H]thymidine incorporation; assay type: functional, Homo sapiens
HUVEC [42] = experiment: Anti-proliferative effect on human umbilical vein endothelial cells (HUVEC) induced by fetal bovine serum (FBS) at 0.3 (uM) concentration; assay type: functional
HUVEC [43] = experiment: Anti-proliferative effect on HUVEC induced by basic fibroblast growth factor (bFGF)at 1 uM concentration by measuring [3H]thymidine incorporation; assay type: functional, Homo sapiens
HUVEC [44] = experiment: Anti-proliferative effect on HUVEC induced by basic fibroblast growth factor (bFGF)at 0 uM concentration by measuring [3H]thymidine incorporation; assay type: functional, Homo sapiens
HUVEC [45] = experiment: Anti-proliferative effect on HUVEC induced by fetal bovine serum (FBS) at 0.1 uM concentration by measuring [3H]thymidine incorporation; assay type: functional, Homo sapiens
HUVEC [46] = experiment: Anti-proliferative effect on human umbilical vein endothelial cells (HUVEC) induced by endothelial cell growth supplement (ECGS) at 1 (uM) concentration; assay type: functional
Mus musculus [47] = experiment: Antirheumatic effect was determined in mice after oral administration of a dose of 1 mg/kg/day at day 14; assay type: functional; details: 336 h
Mus musculus [48] = experiment: Antirheumatic effect was determined in mice after combined treatment of TAS-202 (30 mg/kg/day) and indomethacin (1 mg/kg/day) at day 14; assay type: functional

CCN(CC)c1nc(-c2cc(OC)c(OC)c(OC)c2)cc(-c2cc(OC)c(OC)cc2OC)n1
Activity (Homo sapiens [1]): 1867.1 c.p.m.
Activity [2]: 15784.2 c.p.m.
Inhibition [3]: 16.5%
Inhibition (HUVEC [4]): 70.3%
Inhibition (HUVEC [5]): 30.7%
IC50 (HUVEC [6]): 199 nM
inhibition at 0.3 µM (Homo sapiens [7]): -18.4%
Inhibition (HUVEC [8]): 64.6%
IC50 (HUVEC [9]): 398 nM
Activity (HUVEC [10]): 122.8 c.p.m.
inhibition at 1 µM (Homo sapiens [11]): -14.3%
Activity (HUVEC [12]): 6638.9 c.p.m.
inhibition at 0.1 µM (Homo sapiens [13]): -2.2%
Activity (HUVEC [14]): 154.2 c.p.m.
Activity (HUVEC [15]): 1861.3 c.p.m.
Activity [16]: 18896 c.p.m.
Activity (HUVEC [17]): 448 c.p.m.
Inhibition [18]: 29.3%
Activity (HUVEC [19]): 6927.6 c.p.m.
Inhibition (HUVEC [20]): 33.6%
Inhibition (HUVEC [21]): 26.7%
Inhibition [22]: -0.3%
Activity (HUVEC [23]): 1634.5 c.p.m.
inhibition at 0.1 µM (HUVEC [23]): 41.8%
Activity [24]: 13366.5 c.p.m.
Inhibition (HUVEC [25]): 10.4%
Activity (HUVEC [26]): 595.9 c.p.m.
Inhibition (HUVEC [27]): 39.2%
Activity (HUVEC [28]): 994.2 c.p.m.
Activity (HUVEC [29]): 2077.3 c.p.m.
Inhibition (HUVEC [30]): 78.4%
Activity [31]: 18961.2 c.p.m.
inhibition at 1 µM (HUVEC [32]): 79.4%
IC50 (HUVEC [33]): 148 nM
Activity (HUVEC [34]): 2810.3 c.p.m.
Activity (Homo sapiens [35]): 2209.9 c.p.m.
Activity (Homo sapiens [36]): 1907.7 c.p.m.
inhibition in vivo at 30 mg/kg/day (Mus musculus [37]): 32.4%
Activity (Homo sapiens [38]): 2133.2 c.p.m.
IC50 (HUVEC [39]): 561 nM
Activity (HUVEC [40]): 359 c.p.m.
Activity (HUVEC [41]): 1263.7 c.p.m.
Inhibition (HUVEC [42]): 74.1%
Activity (HUVEC [43]): 2969.9 c.p.m.
Activity (HUVEC [44]): 9998.4 c.p.m.
Activity (HUVEC [45]): 437 c.p.m.
Inhibition (HUVEC [46]): 87.2%

COc1ccc2c(c1)c(CC(=O)O)c(C)n2C(=O)c1ccc(Cl)cc1 [INDOMETHACIN]
inhibition in vivo at 1 mg/kg/day (Mus musculus [47]): 22.2%
Inhibition (Mus musculus [48]): 75%

Source: ChEMBL document CHEMBL1135070, “Synthesis of a magnosalin derivative, 4-(3,4,5-trimethoxyphenyl)-6-(2,4,5-trimethoxyphenyl)-2-diethylaminopyrimidine, and the anti-angiogenic and anti-rheumatic effect on mice by oral administration” (Bioorg Med Chem Lett, 2002)
